What all share (type): cell-based
One test has as its system A549. The experiment in a line: Cell viability assay (CellTiter-Blue/CellTiter-Glow). The conditions noted are these: Homo sapiens; lung carcinoma cell line A549; absolute IC50; 72 h. How it is done: (§1) Antitumor activity of the compounds and doxorubicin as a positive control was assessed by using the CellTiter-Blue Cell Viability Assay (Promega, #G8082) or CellTiter-Glow® Luminescent Cell Viability assay (Promega #G7572) according to the manufacturer's instructions. The compounds were tested at 5 or 6 concentrations in half-log increments (highest concentration 30 μM or 100 μM) in duplicate or triplicate well conditions.
(§2) Tumor cells were grown at 37° C. in a humidified atmosphere with 5% CO2 in RPMI 1640 or DMEM medium, supplemented with 10% (v/v) fetal calf serum and 50 μg/ml gentamicin for up to 20 passages, and were passaged once or twice weekly. Cells were harvested using TrypLE or PBS buffer containing 1 mM EDTA, and the percentage of viable cells is determined using a CASY Model TI cell counter (OMNI Life Science). Cells were harvested from exponential phase cultures, counted and plated in 96 well flat-bottom microtiter plates at a cell density depending on the cell line's growth rate (4,000-20,000 cells/well depending on the cell line's growth rate, up to 60,000 for hematological cancer cell lines) in RPMI 1640 or DMEM medium supplemented with 10% (v/v) fetal calf serum and 50 μg/ml gentamicin (140 μl/well). Cultures were incubated at 37° C. and 5% CO2 in a humidified atmosphere. After 24 h, 10 μl of test compounds or control medium were added, and left on the cells for another 72 h. Compounds were serially diluted in DMSO, transferred in cell culture medium, and added to the assay plates. The DMSO concentration was kept constant at <0.3% v/v across the assay plate. Viability of cells was quantified by the CellTiter-Blue® cell viability assay (Promega G8081) or CellTiter-Glow® Luminescent Cell Viability assay (Promega #G7572). Fluorescence (FU) was measured by using the EnSpire® multimode plate reader (Perkin Elmer) (excitation X=570 nm, emission λ=600 nm). Luminescence was measured with a microplate luminometer (Promega or PerkinElmer).
(§3) Sigmoidal concentration-response curves were fitted to the data points (test-versus-control, T/C values) obtained for each tumor model using 4 parameter non-linear curve fit (Charles River DRS Datawarehouse Software) or with GraphPad prism 5.02 software. IC50 values are reported as absolute IC50 values, being the concentration of test compound at the intersection of the concentration-response curves with T/C=50% Cell lines tested are presented in Table 1.
For orientation: Alamar Blue is a resazurin reagent that responds to reducing activity.

The test system of another test is CALU-6. The test is described as above. Conditions: Homo sapiens; lung carcinoma cell line CALU-6; absolute IC50; 72 h. As to the method:
as §1, §2, §3

The test system of the next test is H1299. The description is as above. The conditions noted are these: Homo sapiens, NCI-H1299; lung carcinoma cell line H1299; absolute IC50; 72 h. How it is done: as §1, §2, §3
In the next test the test system is HT-29. The test is described as above. Conditions: Homo sapiens; colon carcinoma cell line HT-29; absolute IC50; 72 h. How it is done: as §1, §2, §3
For another test, the system named is K-562. The test is described as above. Conditions: Homo sapiens, K562; leukaemia cell line K-562; absolute IC50; 72 h. As to the method: as §1, §2, §3
A further test deals with Mia-Pa-Ca-2. The test is described as above. Conditions: Homo sapiens, MIA PaCa-2; pancreatic carcinoma cell line Mia-Pa-Ca-2; absolute IC50; 72 h. As to the method:
as §1, §2, §3

Another test concerns NCI-H460. The description is as above. The conditions noted are these: Homo sapiens; lung carcinoma cell line NCI-H460; absolute IC50; 72 h. As to the method:
as §1, §2, §3

The subject of the next test is OVCAR-3. The test is described as above. The conditions noted are these: Homo sapiens; ovarian carcinoma cell line OVCAR-3; absolute IC50; 72 h. How it is done:
as §1, §2, §3

The test system of a further test is SF-268. The test is described as above. Conditions: Homo sapiens; brain carcinoma cell line SF-268; absolute IC50; 72 h. How it is done:
as §1, §2, §3

In a further test the test system is SK-OV-3. Described as above. Conditions: Homo sapiens; ovarian carcinoma cell line SK-OV-3; absolute IC50; 72 h. How it is done:
as §1, §2, §3

The test system of another test is U-87. The description is as above. The conditions noted are these: Homo sapiens, U-87 MG; brain carcinoma cell line U-87; absolute IC50; 72 h. How it is done:
as §1, §2, §3

In the next test the test system is CH-17-0098. The experiment in a line: PDX-derived cell culture cytotoxicity (CellTiter-Glo). The conditions noted are these: 120 h; bile duct PDX CH-17-0098; absolute IC50; 5 days. As to the method: (§4) PDX-derived cell cultures were obtained from tumors explanted from mice and isolated by mechanical and enzymatic dissociation. […] Cells were harvested and seeded in 96-wells plates at a density of 1.25 to 5×10^3 cells/well for cytotoxicity assays. Cells were incubated 48 h at 37° C. prior to addition of test molecules and vehicle (DMSO, 0.1%) at desired final concentrations. Cell viability was assessed before drugs' addition (To) and 5 days after test molecules addition by measuring ATP cell content using CellTiter-Glo® Luminescent Cell Viability Assay (Promega) according to the manufacturer's instructions. Luciferase activity was measured on a luminometer (PerkinElmer® EnVision™). Each concentration of compounds was tested in triplicate.
(§5) Viability was calculated as a percentage of ATP value compared to vehicle treated controls.
(§6) For PDX primary cell cultures, the tumour tissue was washed with PBS containing antibiotic-antimycotic and non-tumour tissue and necrotic tumour tissues were separated. The tumour tissue was transferred to a new dish and cut into 1-2 mm^3 fragments, resuspended in RPMI-1640 medium and centrifuged at 1,200 rpm for 6 min at room temperature. The pelleted material was resuspended with 15 mL of Tumour Cell Digestion Solution and incubated at 37° C. for 1 hour with agitation. Following further addition of media, centrifugation and passage through a […] cell strainer, the homogenous cell mixture was layered onto 15 mL of Ficoll-Paque PLUS in a 50 mL conical tube and centrifuged for 15 min at 1,600 rpm. The interface cells were collected, washed with media, separated by centrifugation at 1,200 rpm. The cell pellet was resuspended in serum free media supplemented with growth factors. 10,000 cells/wells were plated in a 96 well plate and incubated at 37° C., 5% CO2, 95% air and 100% relative humidity overnight. The cytotoxicity assay was conducted as above. IC50 values represent absolute IC50.

Another test deals with HCT-15. As to the kind of experiment: Cell viability assay (CellTiter-Blue/CellTiter-Glow). The conditions noted are these: Homo sapiens; colon carcinoma cell line HCT-15; absolute IC50; 72 h. How it is done:
as §1, §2, §3

For another test, the system named is KM-12. Described as above. Conditions: Homo sapiens, KM12; colon carcinoma cell line KM-12; absolute IC50. As to the method:
as §1, §2, §3

The next test concerns skin melanoma PDX. As to the kind of experiment: Activity against skin melanoma PDX. The conditions noted are these: skin melanoma PDX growth; text summary of Table 22. How it is done: as §4, §5, §6

For orientation: IC50 means the concentration needed to halve the response being measured.

As to `CC(C)NC(=O)Oc1ccc2c(=O)cc(-c3ccc(CCCC[P+](c4ccccc4)(c4ccccc4)c4ccccc4)cc3)oc2c1O` [SND127, 4-[4-[7-(Isopropylcarbamoyloxy)-8-hydroxy-4-oxo-chromen-2-yl]phenyl]butyltriphenylphosphonium bromide], the IC50 came to 5.3 µM in the test on A549; 7.13 µM in the test with CALU-6; 12.7 µM in the test with H1299; 6.4 µM with HT-29; 1.23 µM in the test with K-562; 1.81 µM with Mia-Pa-Ca-2. Further, the IC50 stood at 5.58 µM with NCI-H460; 5.7 µM in the test on OVCAR-3; 11.9 µM with SF-268; 11.5 µM in the test on SK-OV-3; 3.8 µM in the test on U-87.
For the compound `CCNC(=O)Oc1ccc2c(=O)cc(-c3ccc(CCCC[P+](c4ccccc4)(c4ccccc4)c4ccccc4)cc3)oc2c1OC(=O)NCC.[Br-]` [SND124, 4-[4-[7,8-Bis(ethylcarbamoyloxy)-4-oxo-chromen-2-yl]phenyl]-butyltriphenylphosphonium bromide], the IC50 came to 6.1 µM with CH-17-0098; 11.2 µM with A549; 4.27 µM in the test on H1299; 10 µM with HCT-15; 2.96 µM with HT-29; 0.02 µM with K-562. In addition, the IC50 with KM-12 was 2.7 µM; with Mia-Pa-Ca-2 it was 4.8 µM; in the test with SK-OV-3, 3.4 µM; in the test on U-87 it was 1.18 µM; in the test on skin melanoma PDX it was < 10 µM.
For `O=c1cc(-c2ccc(CCCC[P+](c3ccccc3)(c3ccccc3)c3ccccc3)cc2)oc2c(O)c(O)ccc12` [SND118, 4-[4-(7,8-dihydroxy-4-oxo-chromen-2-yl)phenyl]butyltriphenyl-phosphonium bromide], the IC50 with A549 came to 12.5 µM; with CALU-6, 1.47 µM; in the test on H1299, 1.28 µM; with HCT-15, 3.3 µM; with HT-29 it was 10.3 µM; in the test on K-562 it was 0.14 µM. For the same compound, the IC50 in the test on Mia-Pa-Ca-2 turned out to be 1.9 µM; in the test on NCI-H460 it was 0.29 µM; in the test on OVCAR-3, 7.3 µM; in the test on SF-268, 15.6 µM; in the test with SK-OV-3 it was 6.35 µM; in the test with U-87, 1.76 µM.
As for `CCNC(=O)Oc1ccc2c(=O)cc(-c3ccc(CCCC[P+](c4ccccc4)(c4ccccc4)c4ccccc4)cc3)oc2c1O.[Br-]` [SND126A, 4-[4-[7-(Ethylcarbamoyloxy)-8-hydroxy-4-oxo-chromen-2-yl]phenyl]butyltriphenylphosphonium bromide], the IC50 in the test on CH-17-0098 was 8.5 µM; in the test with KM-12, 3.2 µM; in the test on Mia-Pa-Ca-2, 0.96 µM; in the test with OVCAR-3, 6.54 µM; in the test with SF-268, 10.7 µM; with skin melanoma PDX, < 10 µM.
Regarding `O=c1cc(-c2ccc(CCCC[P+](c3ccccc3)(c3ccccc3)c3ccccc3)cc2)oc2c3c(ccc12)OCO3.[Br-]` [SND123, 4-[4-(6-oxo-[1,3]dioxolo[4,5-h]chromen-8-yl)phenyl]butyl-triphenylphosphonium bromide], the IC50 with CH-17-0098 came to 0.72 µM; with A549, 8.08 µM; in the test on CALU-6 it was 1.14 µM; in the test with HCT-15 it was 9.3 µM; in the test on HT-29, 9.3 µM; in the test on KM-12, 3 µM. For the same compound, the IC50 is 1.32 µM in the test on Mia-Pa-Ca-2; 5.04 µM in the test with NCI-H460; 2.36 µM in the test with OVCAR-3; 3.15 µM in the test with SF-268; 0.87 µM in the test with U-87; < 10 µM with skin melanoma PDX.
With `COc1c(O)ccc2c(=O)cc(-c3ccc(CCCC[P+](c4ccccc4)(c4ccccc4)c4ccccc4)cc3)oc12.[Br-]` [SND140, (4-(4-(7-hydroxy-8-methoxy-4-oxo-4H-chromen-2-yl)phenyl)butyl)triphenylphosphonium bromide], the IC50 with CH-17-0098 is 4.98 µM; with CALU-6, 3.8 µM; in the test on HT-29, 14.2 µM; in the test with KM-12 it was 5.6 µM; in the test on NCI-H460, 10.8 µM; with OVCAR-3, 8.87 µM. Moreover, the IC50 was 9.5 µM in the test on SF-268, 5.4 µM in the test on U-87 and < 10 µM in the test with skin melanoma PDX.

Source of the values: patent US20240209011A1, “HETEROAROMATIC PHOSPHONIUM SALTS FOR TREATING CANCER” (FLORATEK PHARMA S.A., priority 2021, published 2024).
